Counter-ions that a name gives are not always drawn.
Target: T1, bovine MTP (Bos taurus, UniProt P55156)
T1 construct: with about 50-200 ng purified MTP in the well of a 96-well plate; from tissue; host or cells: bovine liver
T1 sequence (P55156 12-887): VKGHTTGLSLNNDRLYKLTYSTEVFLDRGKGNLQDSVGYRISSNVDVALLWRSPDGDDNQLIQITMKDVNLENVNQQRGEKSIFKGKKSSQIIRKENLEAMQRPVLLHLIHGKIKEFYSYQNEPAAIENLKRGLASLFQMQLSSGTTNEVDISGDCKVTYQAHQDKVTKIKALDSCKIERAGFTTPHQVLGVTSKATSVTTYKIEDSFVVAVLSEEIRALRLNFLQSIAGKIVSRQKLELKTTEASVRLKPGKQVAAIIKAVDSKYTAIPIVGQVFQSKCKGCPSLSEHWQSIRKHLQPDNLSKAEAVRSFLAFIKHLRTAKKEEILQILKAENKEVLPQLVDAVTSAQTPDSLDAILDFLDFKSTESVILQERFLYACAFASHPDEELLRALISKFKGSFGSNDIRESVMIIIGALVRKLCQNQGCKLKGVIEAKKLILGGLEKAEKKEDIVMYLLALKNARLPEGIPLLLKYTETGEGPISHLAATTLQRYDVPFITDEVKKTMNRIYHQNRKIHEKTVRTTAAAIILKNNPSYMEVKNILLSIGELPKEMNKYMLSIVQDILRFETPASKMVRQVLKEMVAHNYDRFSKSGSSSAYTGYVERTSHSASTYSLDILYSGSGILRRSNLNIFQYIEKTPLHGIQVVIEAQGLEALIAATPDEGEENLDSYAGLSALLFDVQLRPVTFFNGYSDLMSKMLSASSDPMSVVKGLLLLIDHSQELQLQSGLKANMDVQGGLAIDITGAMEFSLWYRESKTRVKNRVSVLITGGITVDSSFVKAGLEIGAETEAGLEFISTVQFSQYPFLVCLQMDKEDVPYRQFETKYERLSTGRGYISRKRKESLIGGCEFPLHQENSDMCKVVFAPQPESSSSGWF
T1 sequence (P05307 21-510 partner): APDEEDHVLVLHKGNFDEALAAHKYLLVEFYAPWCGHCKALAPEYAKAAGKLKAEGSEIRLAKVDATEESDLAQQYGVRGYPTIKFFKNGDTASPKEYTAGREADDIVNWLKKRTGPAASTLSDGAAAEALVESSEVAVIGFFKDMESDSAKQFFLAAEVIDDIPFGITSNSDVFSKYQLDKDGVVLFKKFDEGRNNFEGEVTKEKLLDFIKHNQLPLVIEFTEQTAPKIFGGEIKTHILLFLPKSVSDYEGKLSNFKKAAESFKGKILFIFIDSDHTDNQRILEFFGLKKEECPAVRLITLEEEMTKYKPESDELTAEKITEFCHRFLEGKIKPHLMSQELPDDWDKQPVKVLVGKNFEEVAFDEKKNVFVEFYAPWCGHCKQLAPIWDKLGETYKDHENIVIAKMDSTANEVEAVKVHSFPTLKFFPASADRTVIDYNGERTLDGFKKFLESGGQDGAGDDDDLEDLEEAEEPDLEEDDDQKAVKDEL
Assay: MTP-catalyzed transfer of radiolabeled TG from donor HDL to acceptor LDL (primary screen)
Type: biochemical
Conditions: result in words
Procedure: In this screen, the rate of detectably labeled lipid (for example, NMR, ESR, radio or fluorescently labeled TG, CE, or PC) transfer from donor particles (e.g., donor membranes, vesicles, or lipoproteins) to acceptor particles (e.g., acceptor membranes, vesicles, or lipoproteins) in the presence of MTP is measured. A decrease in the observed transfer rate in the presence of an inhibitor of MTP (e.g., contained in a natural products extract or known compounds) may be used as an assay to identify and isolate inhibitors of MTP function. […]
In a typical 150 μL assay, transfer activity is determined by measuring the transfer of radiolabeled TG from [^3H]-HDL (5 μg cholesterol) donor particles to LDL (50 μg cholesterol) acceptor particles at 37° C. for three hours in 15 mM Tris, pH 7.4, 125 mM MOPS, 30 mM Na acetate, 160 mM NaCl, 2.5 mM Na2 EDTA, 0.02% NaN3, 0.5% BSA with about 50-200 ng purified MTP in the well of a 96-well plate. […] The enzyme activity is based on the percentage of TG transfer and is calculated by the following equation: [formula] […]
Using the method outlined in Example 5, MTP inhibitor compounds A and B were identified. The assay measured the bovine MTP-catalyzed rate of transport of radiolabeled TG from donor HDL to acceptor LDL. […]

| Structure (SMILES) | inhibition of MTP-catalyzed transport of 3H-TG from HDL to LDL |
| --- | --- |
| O=C1c2ccccc2CN1C1CCN(CCC(c2ccccc2)c2ccccc2)CC1 [compound A, 2-[1-(3,3-diphenylpropyl)-4-piperdinyl]-2,3-dihydro-3-oxo-1H-isoindole hydrochloride] | inhibited |
| COc1ccccc1N1CCN(CC2CC(=O)c3ccc(F)cc3C2)CC1 (centres unmarked) [compound B, 1-[3-(6-fluoro-1-tetralanyl)methyl]-4-O-methoxyphenyl piperazine] | MTP inhibitor |

From patent US6492365B1, “Microsomal triglyceride transfer protein” (Bristol-Myers Squibb Company, priority 1992, dated 2002)
